Activity data for 1 compound are collected here from ChEMBL document CHEMBL4270481, “ALK5 kinase inhibitory activity and synthesis of 2,3,4-substituted 5,5-dimethyl-5,6-dihydro-4H-pyrrolo[1,2-b]pyrazoles” (Eur J Med Chem, 2017).

Each structure is given as a SMILES string.

Experiment [1] addresses T1, TGF-beta receptor type-1 (Homo sapiens) (UniProt P36897).
T1 sequence (whole entry): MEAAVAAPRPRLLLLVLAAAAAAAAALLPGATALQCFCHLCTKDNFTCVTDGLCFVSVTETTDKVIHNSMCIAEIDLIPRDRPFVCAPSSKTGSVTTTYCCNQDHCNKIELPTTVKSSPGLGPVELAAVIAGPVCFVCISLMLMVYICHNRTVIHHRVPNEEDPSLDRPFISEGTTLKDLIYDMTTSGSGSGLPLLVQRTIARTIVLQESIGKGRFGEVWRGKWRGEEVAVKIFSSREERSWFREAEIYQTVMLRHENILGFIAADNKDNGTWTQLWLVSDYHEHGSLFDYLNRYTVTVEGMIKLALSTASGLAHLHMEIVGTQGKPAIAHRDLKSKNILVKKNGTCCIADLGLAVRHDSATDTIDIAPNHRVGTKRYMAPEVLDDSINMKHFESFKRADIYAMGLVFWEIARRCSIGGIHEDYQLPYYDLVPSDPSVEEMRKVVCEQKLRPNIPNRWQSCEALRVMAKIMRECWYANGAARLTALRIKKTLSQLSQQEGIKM
Kind of experiment: Inhibition of human ALK5 expressed in Sf9 insect cells assessed as residual enzyme activity at 1 uM using casein as substrate in presence of [gamma-33P]ATP relative to untreated control.

The next experiment is filed under the species Homo sapiens. Kind of experiment: Inhibition of PKA (unknown origin) assessed as residual enzyme activity at 1 uM relative to untreated control.
The target of experiment [2] is Dual specificity mitogen-activated protein kinase kinase 1 (Homo sapiens) (UniProt Q02750). Put plainly: Inhibition of MKK1 (unknown origin) assessed as residual enzyme activity at 1 uM relative to untreated control.
Dual specificity mitogen-activated protein kinase kinase 1 (Homo sapiens), sequence (Q02750 whole entry): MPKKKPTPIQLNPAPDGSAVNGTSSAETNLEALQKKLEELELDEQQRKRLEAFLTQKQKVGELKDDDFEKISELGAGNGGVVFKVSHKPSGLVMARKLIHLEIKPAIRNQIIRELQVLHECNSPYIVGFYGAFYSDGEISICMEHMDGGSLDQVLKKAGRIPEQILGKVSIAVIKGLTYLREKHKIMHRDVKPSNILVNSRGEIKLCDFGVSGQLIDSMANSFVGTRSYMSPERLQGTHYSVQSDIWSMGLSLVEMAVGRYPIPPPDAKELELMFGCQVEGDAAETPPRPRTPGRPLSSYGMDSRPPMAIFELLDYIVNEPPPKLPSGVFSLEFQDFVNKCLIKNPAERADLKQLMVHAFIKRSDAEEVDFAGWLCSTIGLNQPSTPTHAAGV

Take `Cc1cccc(-c2nn3c(c2-c2ccc(O)cc2)C(C)C(C)(C)C3)n1` (stereo not drawn): the results for the Activity (in experiment [1]; in the experiment filed under Homo sapiens; in experiment [2]) were 6%, 60 to 80% and more than 80%, respectively.
